The values that follow come from BindingDB's records for patent US20250011272 (Shanghaiinstitute of Materia Medica, 2025).

For the assay, the target named is T1, ATP-citrate synthase (Homo sapiens, UniProt P53396).
T1 sequence (P53396 whole entry): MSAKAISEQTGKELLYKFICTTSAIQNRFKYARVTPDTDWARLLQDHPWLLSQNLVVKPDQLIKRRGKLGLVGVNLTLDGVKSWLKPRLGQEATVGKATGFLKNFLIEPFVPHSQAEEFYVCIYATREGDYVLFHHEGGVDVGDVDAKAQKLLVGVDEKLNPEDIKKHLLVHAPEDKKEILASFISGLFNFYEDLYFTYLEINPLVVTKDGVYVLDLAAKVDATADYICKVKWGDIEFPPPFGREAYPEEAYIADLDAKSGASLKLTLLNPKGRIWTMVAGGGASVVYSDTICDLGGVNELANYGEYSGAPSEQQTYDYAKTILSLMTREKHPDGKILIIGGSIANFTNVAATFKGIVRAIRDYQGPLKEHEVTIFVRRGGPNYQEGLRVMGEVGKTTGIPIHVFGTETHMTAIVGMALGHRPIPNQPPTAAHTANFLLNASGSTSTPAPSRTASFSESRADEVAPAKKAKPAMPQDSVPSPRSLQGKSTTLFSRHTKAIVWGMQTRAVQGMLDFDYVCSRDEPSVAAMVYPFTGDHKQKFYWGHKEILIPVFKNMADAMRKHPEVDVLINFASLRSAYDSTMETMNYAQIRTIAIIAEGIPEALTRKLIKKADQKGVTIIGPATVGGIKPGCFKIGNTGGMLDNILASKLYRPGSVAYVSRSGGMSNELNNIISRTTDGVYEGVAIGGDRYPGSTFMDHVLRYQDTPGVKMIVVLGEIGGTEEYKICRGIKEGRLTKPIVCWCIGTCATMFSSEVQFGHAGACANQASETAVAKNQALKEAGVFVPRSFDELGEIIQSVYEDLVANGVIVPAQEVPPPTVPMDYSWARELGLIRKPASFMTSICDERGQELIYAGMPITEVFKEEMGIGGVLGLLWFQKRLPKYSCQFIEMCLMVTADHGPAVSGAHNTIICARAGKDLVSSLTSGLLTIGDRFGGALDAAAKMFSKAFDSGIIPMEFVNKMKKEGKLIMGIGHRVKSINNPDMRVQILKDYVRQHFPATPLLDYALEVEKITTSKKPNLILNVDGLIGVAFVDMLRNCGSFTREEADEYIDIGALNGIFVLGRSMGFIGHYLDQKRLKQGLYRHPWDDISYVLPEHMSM
Briefly: ACLY Enzyme Activity Assay. Here is the method: Experimental method: ADP Glo luminescence method was used for determination. It reflects the activity of ACLY enzyme by quantitatively detecting the amount of ADP, and the enzymatic reaction catalyzed by ACLY is proportional to the amount of ADP detected by the luminescent signal. Firstly, the compound is diluted with 10% DMSO, and then […] of compound dilution is added to a 5 μl reaction system, so that the final reaction system has a DMSO content of 2%. The enzymatic reaction catalyzed by ACLY was carried out at 37° C. for 30 minutes. 5 μl reaction mixture contained the following components: 40 mM Tris, pH 8.0, 10 mM MgCl2, 5 mM DTT, ATP, CoA, sodium citrate, and ACLY. After the enzymatic reaction was complete, 2.5 μl of ADP Glo reagent was added to each reaction system and incubated at room temperature for 1 hour. Afterwards, 5 μl of kinase detection reagent was added and incubated at room temperature for 30 minutes. The luminous signal was detected using Envision (PerkinElmer, USA).

What is called IC50 is the concentration at which inhibition is half-maximal. A high value points to weaker potency. For the compound `CC(CCCCCC/C=C/CCCCCCC(C)(C(=O)O)c1ccccc1)(C(=O)O)c1ccccc1` (stereo unspecified) [US20250011272, Example M16], inhibition was half-maximal at 4000 nM (IC50).

`O=C(c1ccc(/C(=C/CCCCCCC2(C(=O)O)C=CCC2)CCCCCCC2(C(=O)O)C=CCC2)cc1)N1CCN(c2ccccn2)CC1` (stereo unspecified) [US20250011272, Example M38]: the concentration for half-maximal inhibition (IC50) was 760 nM.

On to `O=C(O)C1(CCCCCC/C=C/CCCCCCC2(C(=O)O)CCCCC2)CCCCC1` [US20250011272, Example M18], for which the half-maximal inhibitory concentration (IC50) turned out to be 16500 nM.

On to `O=C(O)C1(CCCCCC/C=C/CCCCCCC2(C(=O)O)CC=CC2)CC=CC1` [US20250011272, Example M17], for which the IC50 was 3100 nM.

For the compound `O=C(O)c1ccc(-c2ccc(N3CCN(C(=O)c4ccc(/C(=C/CCCCCCC5(C(=O)O)C=CCC5)CCCCCCC5(C(=O)O)C=CCC5)cc4)CC3)nc2)cc1` (stereo unspecified) [US20250011272, Example M39], the concentration for half-maximal inhibition (IC50) turned out to be 1300 nM.

The compound `O=C(c1ccc(/C(=C/CCCCCCC2(C(=O)O)C=CCC2)CCCCCCC2(C(=O)O)C=CCC2)cc1)N1CCN(c2ccccc2F)CC1` (stereo unspecified) [US20250011272, Example M40] returned a half-inhibitory concentration (IC50) of 1690 nM.
